How the values were obtained:
Plasma kallikrein = Plasma kallikrein (Homo sapiens, UniProt P03952); assay: Inhibitory activity of compound against human plasma Kallikrein (PK); format: cell-free
Kallikrein-1 = Kallikrein-1 (Homo sapiens, UniProt P06870); assay: Inhibitory activity of compound against Tissue Kallikrein (TK)
Kallikrein-1, sequence (P06870 whole entry): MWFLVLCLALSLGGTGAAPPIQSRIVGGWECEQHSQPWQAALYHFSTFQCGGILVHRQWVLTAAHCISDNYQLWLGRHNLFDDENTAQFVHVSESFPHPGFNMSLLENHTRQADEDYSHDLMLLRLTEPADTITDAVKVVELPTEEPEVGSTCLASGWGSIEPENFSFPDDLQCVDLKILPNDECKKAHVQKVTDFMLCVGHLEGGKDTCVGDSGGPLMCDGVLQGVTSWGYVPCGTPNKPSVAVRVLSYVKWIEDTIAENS

Plasma kallikrein, sequence (P03952 20-390 limits assumed): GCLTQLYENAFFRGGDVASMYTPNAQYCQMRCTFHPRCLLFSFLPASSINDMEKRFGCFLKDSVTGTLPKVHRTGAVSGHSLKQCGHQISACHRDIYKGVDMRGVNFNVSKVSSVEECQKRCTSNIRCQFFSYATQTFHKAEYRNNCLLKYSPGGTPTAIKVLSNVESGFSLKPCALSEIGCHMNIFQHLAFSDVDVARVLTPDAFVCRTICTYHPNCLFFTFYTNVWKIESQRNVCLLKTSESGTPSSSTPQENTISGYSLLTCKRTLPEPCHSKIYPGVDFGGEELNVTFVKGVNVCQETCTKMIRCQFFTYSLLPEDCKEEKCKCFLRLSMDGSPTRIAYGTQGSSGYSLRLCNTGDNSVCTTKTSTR
Plasma kallikrein, sequence (P03952 391-638 limits assumed): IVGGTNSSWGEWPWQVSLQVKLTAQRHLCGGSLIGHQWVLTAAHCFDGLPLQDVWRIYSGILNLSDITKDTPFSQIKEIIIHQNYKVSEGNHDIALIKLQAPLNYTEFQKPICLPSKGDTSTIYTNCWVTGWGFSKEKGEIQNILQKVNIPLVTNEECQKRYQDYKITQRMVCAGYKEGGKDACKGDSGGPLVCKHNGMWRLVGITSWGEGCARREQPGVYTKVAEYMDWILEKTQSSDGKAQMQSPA

Compound	Ki (Plasma kallikrein) [µM]	Ki (Kallikrein-1) [µM]
CC(C)(C)[C@@H](NC(=O)OC12CC3CC(CC(C3)C1)C2)C(=O)N[C@H](C(=O)NC(Cc1ccc(NC(=N)N)cc1)C(=O)C(F)(F)F)c1ccc2ccccc2c1 (some centres undefined)	0.5	> 50
CC(C)(C)[C@@H](NC(=O)N1CCOCC1)C(=O)NCC(=O)NC(Cc1ccc(NC(=N)N)cc1)C(=O)C(F)(F)F (some centres undefined)	15.5	> 150
CC(C)(C)OC(=O)N[C@H](Cc1ccccc1)C(=O)N[C@H](C(=O)NC(Cc1ccc(NC(=N)N)cc1)C(=O)C(F)(F)F)c1ccc2ccccc2c1 (some centres undefined)	0.089	223

The next compounds have a lower Ki (Plasma kallikrein) than those just listed; values first:

Ki (Plasma kallikrein) [µM]	Ki (Kallikrein-1) [µM]	Compound
0.028	> 2500	CC(C)(C)[C@@H](NC(=O)N1CCOCC1)C(=O)N[C@@H](Cc1ccccc1)C(=O)NC(Cc1ccc(NC(=N)N)cc1)C(=O)C(F)(F)F (some centres undefined)
0.005	191	CC(C)[C@@H](NC(=O)OC12CC3CC(CC(C3)C1)C2)C(=O)N[C@@H](Cc1ccccc1)C(=O)NC(Cc1ccc(NC(=N)N)cc1)C(=O)C(F)(F)F (some centres undefined)
0.004	7	N=C(N)Nc1ccc(CC(NC(=O)[C@H](Cc2ccccc2)NC(=O)[C@@H](CCc2ccccc2)NC(=O)OC23CC4CC(CC(C4)C2)C3)C(=O)C(F)(F)F)cc1 (some centres undefined)
0.002	47.3	CC(C)(C)[C@@H](NC(=O)OC12CC3CC(CC(C3)C1)C2)C(=O)N[C@@H](Cc1ccccc1)C(=O)NC(Cc1ccc(NC(=N)N)cc1)C(=O)C(F)(F)F (some centres undefined)

Source: ChEMBL document CHEMBL1131912, “Synthesis of potent and selective inhibitors of human plasma kallikrein” (Bioorg Med Chem Lett, 1999)
